Measured values taken from patent publication US6465457B1 (priority 1991, dated 2002).
Where two headings read alike, the source gives them in different places.

Legend:
Assay type in all cases: in vivo
[1] = system: Pyricularia oryzae (Rice); conditions: one or two days before inoculation
[2] = system: Puccinia recondita (Wheat); assay: Foliar fungal disease test on plants: Puccinia recondita (Wheat)
[3] = system: Plasmopara viticola (Vines); assay: Foliar fungal disease test on plants: Plasmopara viticola (Vines); conditions: one or two days before inoculation
Septoria nodorum (Wheat) = assay: Foliar fungal disease test on plants: Septoria nodorum (Wheat); conditions: one or two days before inoculation
[4] = system: Thanatephorus cucumeries (Rice); assay: Foliar fungal disease test on plants: Thanatephorus cucumeries (Rice); conditions: one or two days before inoculation
[5] = system: Erysiphe graminis tritici (Wheat); assay: Foliar fungal disease test on plants: Erysiphe graminis tritici (Wheat); conditions: plants inoculated 24 hours before treatment
[6] = system: Phytophthora infestans (Tomatoes); conditions: one or two days before inoculation
[7] = system: Venturia inaequalis (Apples); assay: Foliar fungal disease test on plants: Venturia inaequalis (Apples); conditions: one or two days before inoculation
[8] = 100 ppm a.i. foliar spray or root drench (approx. 40 ppm in dry soil)
[9] = 100 ppm a.i. foliar spray or root drench, plants inoculated with Puccinia recondita 48 hours before treatment
[10] = 100 ppm a.i. foliar spray or root drench (approx. 40 ppm in dry soil), one or two days before inoculation
[11] = 10 ppm foliar spray only, plants inoculated with Puccinia recondita 48 hours before treatment

| Compound | POCO (Percentage of Control) disease level, Pyricularia oryzae (Rice) [1, 8] | POCO (Percentage of Control) disease level, Puccinia recondita (Wheat) [2, 9] | POCO (Percentage of Control) disease level, Plasmopara viticola (Vines) [3, 8] | POCO (Percentage of Control) disease level, Septoria nodorum (Wheat) (Septoria nodorum (Wheat); [8]) | POCO (Percentage of Control) disease level, Thanatephorus cucumeries (Rice) [4, 8] | POCO (Percentage of Control) disease level, Erysiphe graminis tritici (Wheat) [5, 8] | POCO (Percentage of Control) disease level, Phytophthora infestans (Tomatoes) [6, 8] | POCO (Percentage of Control) disease level, Venturia inaequalis (Apples) [7, 8] | POCO (Percentage of Control) disease level, Puccinia recondita (Wheat) [2, 10] | POCO (Percentage of Control) disease level, Pyricularia oryzae (Rice) ([1]; 10 ppm foliar spray only) | POCO (Percentage of Control) disease level, Puccinia recondita (Wheat) [2, 11] | POCO (Percentage of Control) disease level, Plasmopara viticola (Vines) ([3]; 10 ppm foliar spray only) | POCO (Percentage of Control) disease level, Septoria nodorum (Wheat) (Septoria nodorum (Wheat); 10 ppm foliar spray only) | POCO (Percentage of Control) disease level, Thanatephorus cucumeries (Rice) ([4]; 10 ppm foliar spray only) | POCO (Percentage of Control) disease level, Erysiphe graminis tritici (Wheat) ([5]; 10 ppm foliar spray only) | POCO (Percentage of Control) disease level, Phytophthora infestans (Tomatoes) ([6]; 10 ppm foliar spray only) | POCO (Percentage of Control) disease level, Venturia inaequalis (Apples) ([7]; 10 ppm foliar spray only) | POCO (Percentage of Control) disease level, Puccinia recondita (Wheat) ([2]; 10 ppm foliar spray only, one or two days before inoculation) |
| --- | --- | --- | --- | --- | --- | --- | --- | --- | --- | --- | --- | --- | --- | --- | --- | --- | --- | --- |
| COC=C(C(=O)OC)c1ccccc1COC(=O)N1CCSCC1 [4 (133)] | 90 (90 and 94 = 60.1-100% disease present) | 60+ (60 = 30.1-60% disease present) | 0 (0 = 0% disease present) | 90 (90 and 94 = 60.1-100% disease present) | 60 (60 = 30.1-60% disease present) | 90 (90 and 94 = 60.1-100% disease present) | 90 (90 and 94 = 60.1-100% disease present) | 10 (10 = 5.1-10% disease present) |  |  |  |  |  |  |  |  |  |  |
| CO/C=C(/C(=O)OC)c1ccccc1COC(=O)Nc1ccccc1 [5 (1), (E)-methyl 3-methoxy-2-[2-((phenyl)carbamoyloxymethyl)phenyl]propenoate] | 10 (10 = 5.1-10% disease present) |  | 5 (5 = 3.1-5% disease present) | 30 (30 = 20.1-30% disease present) | 60 (60 = 30.1-60% disease present) | 60 (60 = 30.1-60% disease present) | 60 (60 = 30.1-60% disease present) | 30 (30 = 20.1-30% disease present) | 60 (60 = 30.1-60% disease present) |  |  |  |  |  |  |  |  |  |
| COC=C(C(=O)OC)c1ccccc1COC(=S)Oc1ccccc1 [5 (12)] |  |  |  |  |  |  |  |  |  | 60 (60 = 30.1-60% disease present) | 90+ (90 and 94 = 60.1-100% disease present) | 3 (3 = 1.1-3% disease present) | 90 (90 and 94 = 60.1-100% disease present) | 60 (60 = 30.1-60% disease present) | 60 (60 = 30.1-60% disease present) | 90 (90 and 94 = 60.1-100% disease present) | 0 (0 = 0% disease present) |  |
| CNC(=O)C(=NOC)c1ccccc1COC(=O)Nc1ccccc1 [5 (65)] |  |  |  |  |  |  |  |  |  | 30 (30 = 20.1-30% disease present) | 90+ (90 and 94 = 60.1-100% disease present) | 90 (90 and 94 = 60.1-100% disease present) | 90 (90 and 94 = 60.1-100% disease present) | 90 (90 and 94 = 60.1-100% disease present) | 30 (30 = 20.1-30% disease present) | 90 (90 and 94 = 60.1-100% disease present) | 90 (90 and 94 = 60.1-100% disease present) |  |
| CNC(=O)C(=NOC)c1ccccc1COC(=O)N(C)c1ccccc1 [5 (66)] | 0 (0 = 0% disease present) | 10+ (10 = 5.1-10% disease present) | 0 (0 = 0% disease present) | 5 (5 = 3.1-5% disease present) | 0 (0 = 0% disease present) | 0 (0 = 0% disease present) | 0 (0 = 0% disease present) | 0 (0 = 0% disease present) |  |  |  |  |  |  |  |  |  |  |
| COC=C(C(=O)OC)c1ccccc1COC(=O)N1CCc2ccccc21 [5 (133)] |  |  |  |  |  |  |  |  |  | 90 (90 and 94 = 60.1-100% disease present) | 90+ (90 and 94 = 60.1-100% disease present) | 90 (90 and 94 = 60.1-100% disease present) | 90 (90 and 94 = 60.1-100% disease present) | 90 (90 and 94 = 60.1-100% disease present) | 60 (60 = 30.1-60% disease present) | 90 (90 and 94 = 60.1-100% disease present) | 90 (90 and 94 = 60.1-100% disease present) |  |
| COC=C(C(=O)OC)c1ccccc1COC(=O)Nc1cccc([N+](=O)[O-])c1 [6 (1)] | 90 (90 and 94 = 60.1-100% disease present) |  | 90 (90 and 94 = 60.1-100% disease present) | 30 (30 = 20.1-30% disease present) | 90 (90 and 94 = 60.1-100% disease present) | 90 (90 and 94 = 60.1-100% disease present) | 60 (60 = 30.1-60% disease present) | 60 (60 = 30.1-60% disease present) | 90 (90 and 94 = 60.1-100% disease present) |  |  |  |  |  |  |  |  |  |
| COC=C(C(=O)OC)c1ccccc1COC(=O)N(CC(F)F)c1cccc([N+](=O)[O-])c1 [6 (5)] |  |  |  |  |  |  |  |  |  | 60 (60 = 30.1-60% disease present) | 90+ (90 and 94 = 60.1-100% disease present) | 90 (90 and 94 = 60.1-100% disease present) | 90 (90 and 94 = 60.1-100% disease present) | 90 (90 and 94 = 60.1-100% disease present) | 20 (20 and 24 = 10.1-20% disease present) | 90 (90 and 94 = 60.1-100% disease present) | 0 (0 = 0% disease present) |  |
| COC=C(C(=O)OC)c1ccccc1COC(=S)Nc1cccc(OC)c1 [7 (6)] |  |  |  |  |  |  |  |  |  | 10 (10 = 5.1-10% disease present) | 0+ (0 = 0% disease present) | 60 (60 = 30.1-60% disease present) | 90 (90 and 94 = 60.1-100% disease present) | 30 (30 = 20.1-30% disease present) | 0 (0 = 0% disease present) | 90 (90 and 94 = 60.1-100% disease present) | 60 (60 = 30.1-60% disease present) |  |
| COC=C(C(=O)OC)c1ccccc1COC(=O)Nc1cccc(F)c1 [8 (1)] |  |  |  |  |  |  |  |  |  | 10 (10 = 5.1-10% disease present) | 0+ (0 = 0% disease present) | 90 (90 and 94 = 60.1-100% disease present) | 90 (90 and 94 = 60.1-100% disease present) | 90 (90 and 94 = 60.1-100% disease present) | 60 (60 = 30.1-60% disease present) | 90 (90 and 94 = 60.1-100% disease present) | 0 (0 = 0% disease present) |  |
| COC=C(C(=O)OC)c1ccccc1COC(=O)N(C)c1cccc(F)c1 [8 (2)] | 0 (0 = 0% disease present) | 0+ (0 = 0% disease present) | 0 (0 = 0% disease present) | 0 (0 = 0% disease present) | 0 (0 = 0% disease present) | 0 (0 = 0% disease present) | 0 (0 = 0% disease present) | 0 (0 = 0% disease present) |  |  |  |  |  |  |  |  |  |  |
| COC=C(C(=O)OC)c1ccccc1COC(=S)Nc1cccc(F)c1 [8 (6)] |  |  |  |  |  |  |  |  |  | 30 (30 = 20.1-30% disease present) |  | 60 (60 = 30.1-60% disease present) | 90 (90 and 94 = 60.1-100% disease present) | 90 (90 and 94 = 60.1-100% disease present) | 90 (90 and 94 = 60.1-100% disease present) | 90 (90 and 94 = 60.1-100% disease present) | 60 (60 = 30.1-60% disease present) | 90 (90 and 94 = 60.1-100% disease present) |
